Laboratory results reported in US8445491B2, “Wnt protein signalling inhibitors” (The Board of Regents of the University of Texas System, priority 2008, dated 2013).

test system: Wnt/β-catenin pathway; assay: luciferase-based reporter assay (SuperTopFlash) measuring Wnt/β-catenin-dependent transcriptional response, L-Wnt-STF cells; type: cell-based; conditions: Mus musculus; Table 1; luciferase reporter of Wnt/β-catenin-dependent transcriptional response
Experimental: Tables 1 and 2 provides further examples of such compounds, as well as their activities as determined by a luciferase-based reporter assay that measures Wnt/β-catenin-dependent transcriptional response.
For the “primary screen” and “dose-dependent test,” ˜5,000 L-Wnt-STF cells were seeded into each well of a white opaque 384 well plate and individual compounds from the UTSW chemical library added 24 hrs later to each well at a final concentration of 2.5 μM (primary screen) or otherwise indicated concentrations. Luciferase activities were measured 24 hrs later. To identify FL inhibitors and compounds that blocked protein secretion, L-cells were transiently transfected with CMV-FL and CMV-GL constructs and immediately incubated with compounds. Culture medium and cell lysates were analyzed for GL and FL activities, respectively, after 24 hrs. For the “exogenous Wnt test,” Wnt3A-containing conditioned medium, prepared following the protocol provided ATCC, was applied to HEK293 cells transiently transfected with STF and control reporters. For Hedgehog and Notch tests, NIH-3T3 cells or L-cells, respectively, were transiently transfected with indicated reporter constructs and immediately incubated with compounds. Luciferase activities were measured 24 hrs later. The “Wnt secretion test” was performed in L-cells transiently transfected with the Wnt-GL expression construct and immediately incubated with compounds. Culture medium and cellular lysate were analyzed 48 hrs later for GL activity. Assays used to calculate IC50's for compounds were performed as before in L-Wnt-STF cells.
A brief overview of the screen is as follows: mouse L-cells that stably harbor a well-characterized Wnt/β-catenin pathway-responsive firefly luciferase (FL) reporter plasmid (SuperTopFlash or STF), a control reporter, and an expression construct encoding the Wnt protein, Wnt3A, were exposed to individual compounds for two days prior to measurement of reporter activities. Chemicals that altered FL but not control reporter activity were selected for further testing (FIG. 1; FIG. 8). The screening strategy allows for identification of compounds that either potentially increase or decrease Wnt/β-catenin pathway activity.

Row | EC50 | Structure (SMILES)
1 | 10 µM | O=C(NC1CCCc2cccnc21)c1ccc(N2C(=O)[C@@H]3[C@@H]4C=CC(C4)[C@@H]3C2=O)cc1 (stereo partly shown) [Compound 4]
2 | > 25 µM | O=C(Nc1ccccc1)c1ccc(N2C(=O)[C@@H]3[C@@H]4C=CC(C4)[C@@H]3C2=O)cc1 [Compound 6]
3 | > 25 µM | O=C(Nc1ccccc1Cl)c1ccc(N2C(=O)[C@@H]3[C@@H]4C=CC(C4)[C@@H]3C2=O)cc1 [Compound 8]
4 | > 25 µM | O=C(Nc1ccccc1Br)c1ccc(N2C(=O)[C@@H]3[C@@H]4C=CC(C4)[C@@H]3C2=O)cc1 [Compound 9]
5 | > 25 µM | O=C(Nc1cccc(F)c1)c1ccc(N2C(=O)[C@@H]3[C@@H]4C=CC(C4)[C@@H]3C2=O)cc1 [Compound 10]
6 | 9 µM | O=C(Nc1ccc(F)cc1F)c1ccc(N2C(=O)[C@@H]3[C@@H]4C=CC(C4)[C@@H]3C2=O)cc1 [Compound 17]
7 | 3 µM | O=C(Nc1ccc(F)c(F)c1)c1ccc(N2C(=O)[C@@H]3[C@@H]4C=CC(C4)[C@@H]3C2=O)cc1 [Compound 22]
8 | > 25 µM | O=C(Nc1cc(F)cc(F)c1)c1ccc(N2C(=O)[C@@H]3[C@@H]4C=CC(C4)[C@@H]3C2=O)cc1 [Compound 25]
9 | > 25 µM | O=C(Nc1ccccc1C(F)(F)F)c1ccc(N2C(=O)[C@@H]3[C@@H]4C=CC(C4)[C@@H]3C2=O)cc1 [Compound 26]
10 | > 25 µM | O=C(NCc1ccccn1)c1ccc(N2C(=O)[C@@H]3[C@@H]4C=CC(C4)[C@@H]3C2=O)cc1 [Compound 30]

Second part, the molecule before the results:

Row | Structure (SMILES) | EC50
11 | Cc1ccc2cccnc2c1NC(=O)c1ccc(N2C(=O)[C@@H]3[C@@H]4C=CC(C4)[C@@H]3C2=O)cc1 [Compound 3] | 0.8 µM
12 | COc1ccccc1NC(=O)c1ccc(N2C(=O)[C@@H]3[C@@H]4C=CC(C4)[C@@H]3C2=O)cc1 [Compound 5] | 1 µM
13 | O=C(Nc1ccccc1F)c1ccc(N2C(=O)[C@@H]3[C@@H]4C=CC(C4)[C@@H]3C2=O)cc1 [Compound 7] | > 25 µM
14 | O=C(Nc1cccc(Cl)c1)c1ccc(N2C(=O)[C@@H]3[C@@H]4C=CC(C4)[C@@H]3C2=O)cc1 [Compound 11] | > 25 µM
15 | O=C(Nc1cccc(Br)c1)c1ccc(N2C(=O)[C@@H]3[C@@H]4C=CC(C4)[C@@H]3C2=O)cc1 [Compound 12] | 9 µM
16 | O=C(Nc1ccc(F)cc1)c1ccc(N2C(=O)[C@@H]3[C@@H]4C=CC(C4)[C@@H]3C2=O)cc1 [Compound 13] | 4 µM
17 | O=C(Nc1ccc(Cl)cc1)c1ccc(N2C(=O)[C@@H]3[C@@H]4C=CC(C4)[C@@H]3C2=O)cc1 [Compound 14] | 3 µM
18 | O=C(Nc1ccc(Br)cc1)c1ccc(N2C(=O)[C@@H]3[C@@H]4C=CC(C4)[C@@H]3C2=O)cc1 [Compound 15] | 1 µM
19 | O=C(Nc1cccc(F)c1F)c1ccc(N2C(=O)[C@@H]3[C@@H]4C=CC(C4)[C@@H]3C2=O)cc1 [Compound 16] | > 25 µM
20 | O=C(Nc1ccc(Cl)cc1Cl)c1ccc(N2C(=O)[C@@H]3[C@@H]4C=CC(C4)[C@@H]3C2=O)cc1 [Compound 18] | 10 µM
21 | O=C(Nc1ccc(Br)cc1Br)c1ccc(N2C(=O)[C@@H]3[C@@H]4C=CC(C4)[C@@H]3C2=O)cc1 [Compound 19] | > 25 µM
22 | O=C(Nc1cc(F)ccc1F)c1ccc(N2C(=O)[C@@H]3[C@@H]4C=CC(C4)[C@@H]3C2=O)cc1 [Compound 20] | > 25 µM
23 | O=C(Nc1c(F)cccc1F)c1ccc(N2C(=O)[C@@H]3[C@@H]4C=CC(C4)[C@@H]3C2=O)cc1 [Compound 21] | > 25 µM
24 | O=C(Nc1ccc(Cl)c(Cl)c1)c1ccc(N2C(=O)[C@@H]3[C@@H]4C=CC(C4)[C@@H]3C2=O)cc1 [Compound 23] | 5 µM
25 | O=C(Nc1ccc(Br)c(Br)c1)c1ccc(N2C(=O)[C@@H]3[C@@H]4C=CC(C4)[C@@H]3C2=O)cc1 [Compound 24] | 10 µM
26 | O=C(Nc1cccc(C(F)(F)F)c1)c1ccc(N2C(=O)[C@@H]3[C@@H]4C=CC(C4)[C@@H]3C2=O)cc1 [Compound 27] | 20 µM
27 | O=C(Nc1ccc(C(F)(F)F)cc1)c1ccc(N2C(=O)[C@@H]3[C@@H]4C=CC(C4)[C@@H]3C2=O)cc1 [Compound 28] | > 25 µM
28 | O=C(NCc1ccccc1)c1ccc(N2C(=O)[C@@H]3[C@@H]4C=CC(C4)[C@@H]3C2=O)cc1 [Compound 29] | 20 µM
29 | O=C(NCc1cccnc1)c1ccc(N2C(=O)[C@@H]3[C@@H]4C=CC(C4)[C@@H]3C2=O)cc1 [Compound 31] | > 25 µM
30 | O=C(NCc1ccncc1)c1ccc(N2C(=O)[C@@H]3[C@@H]4C=CC(C4)[C@@H]3C2=O)cc1 [Compound 32] | 10 µM
31 | O=C(NC1CCCCC1)c1ccc(N2C(=O)[C@@H]3[C@@H]4C=CC(C4)[C@@H]3C2=O)cc1 [Compound 35] | > 25 µM

same assay, conditions: Mus musculus; Table 2 (50-52, IWR-8 to IWR-14)

Row | EC50 | Structure (SMILES)
32 | > 25 µM | CN(C(=O)c1ccc(N2C(=O)[C@@H]3[C@@H]4C=CC(C4)[C@@H]3C2=O)cc1)c1cccc2cccnc12 [Compound 50]
33 | 0.2 µM | O=C(Nc1cccc2cccnc12)c1ccc(N2C(=O)[C@@H]3[C@@H]4CCC(C4)[C@@H]3C2=O)cc1 [Compound 52]
34 | > 25 µM | O=C1[C@@H]2[C@@H]3C=CC(C3)[C@@H]2C(=O)N1c1ccc(S(=O)(=O)Nc2ccccc2Br)cc1 [IWR-9]
35 | 10 µM | COc1ccccc1NS(=O)(=O)c1ccc(N2C(=O)[C@@H]3[C@@H]4C=CC(C4)[C@@H]3C2=O)cc1 [IWR-12]
36 | 6 µM | COc1cccc(NS(=O)(=O)c2ccc(N3C(=O)[C@@H]4[C@@H]5C=CC(C5)[C@@H]4C3=O)cc2)c1 [IWR-13]

Continued, molecule first:

Row | Structure (SMILES) | EC50
37 | O=C(Nc1cccc2cccnc12)c1ccc(N2C(=O)[C@@H]3[C@H]4C=CC(C4)[C@@H]3C2=O)cc1 [Compound 51] | 5 µM
38 | O=C1[C@@H]2[C@@H]3C=CC(C3)[C@@H]2C(=O)N1c1ccc(S(=O)(=O)Nc2cccc3cccnc23)cc1 [IWR-8] | > 25 µM
39 | O=C1[C@@H]2[C@@H]3C=CC(C3)[C@@H]2C(=O)N1c1ccc(S(=O)(=O)Nc2cccc(Br)c2)cc1 [IWR-10] | 2 µM
40 | O=C1[C@@H]2[C@@H]3C=CC(C3)[C@@H]2C(=O)N1c1ccc(S(=O)(=O)Nc2ccc(Br)cc2)cc1 [IWR-11] | 3 µM
41 | COc1ccc(NS(=O)(=O)c2ccc(N3C(=O)[C@@H]4[C@@H]5C=CC(C5)[C@@H]4C3=O)cc2)cc1 [IWR-14] | 10 µM

test system: caudal fin regeneration in zebrafish; assay: caudal fin regeneration assay in zebrafish; type: in vivo; conditions: zebrafish, FIG. 25, concentration not given
Experimental: FIG. 25. […] Arrows indicate the points of resection.
6 month-old zebrafish were incubated 8 or 14 days at 28.5° C. in aquarium water supplemented with 10 μM IWR or in 0.1% DMSO as a control. Fish were fed standard diet, and solutions were changed daily. At the end of the exposure, zebrafish were incubated in 1 mM BrdU in aquarium water for 2 hrs at room temperature, then washed several times in aquarium water, anesthetized with 0.1% Tricaine, and fixed in 4% paraformaldehyde for 48 hrs at 4° C. The intestine was dissected out, dehydrated, paraffin embedded and sectioned at […] intervals. Sections were stained with Hematoxylin and Eosin or processed for BrdU immunohistochemistry as described (Shepard et al., 2005). Sections from 8 animals each from IWR and DMSO groups were independently scored by four blinded observers. The total number of intestinal folds and total number of BrdU-positive nuclei in the mid and distal sections of the intestine were counted from each section. For caudal fin regeneration assays, zebrafish, 3-6 months of age, were anaesthetized in 0.2% Tricaine and half of the fin was resected using a razor blade to remove Amputees were reared at 31° C. in tanks containing either 300 ml of water with DMSO or IWR (10 μM). Water and compounds were replenished daily for a total assay period of 4 days.

Row | Structure (SMILES) | inhibition of fin regeneration
42 | O=C(Nc1ccc(F)cc1)c1ccc(N2C(=O)[C@@H]3[C@@H]4C=CC(C4)[C@@H]3C2=O)cc1 [Compound 13] | partial inhibition
43 | O=C(Nc1ccc(F)cc1F)c1ccc(N2C(=O)[C@@H]3[C@@H]4C=CC(C4)[C@@H]3C2=O)cc1 [Compound 17] | only retarded the growth of the tail fin
